Some results are limits rather than exact numbers.

System in the first data set: not listed separately
Kind of data set: Cytotoxicity against HEK293 cells assessed as cell viability up to 100 uM after 24 hrs by MTT assay relative to control. It is filed as cell-based. To be noted: human, read-out: Activity. A general note: Tetrazolium dyes change colour on reduction, which living cells bring about.
Consider `Cn1nccc1NC(=O)C1CCc2nc3cc(Br)ccc3c(N)c2C1` (configuration not stated), for which the viability at 24 h is more than 80%.

On to `CNC(=O)C1CCc2nc3cc(Br)ccc3c(N)c2C1` (configuration not stated), for which the viability at 24 h was more than 80%.

`Nc1c2c(nc3cc(Br)ccc13)CCC(C(=O)NCc1ccccc1)C2` (configuration not stated): the viability at 24 h was more than 80%.

System in the next data set: not listed separately
Put plainly: Hepatotoxicity against human HepG2 cells assessed as reduction in cell viability at 10 to 300 uM after 72 hrs by MTT assay. To be noted: hepg2, 72 h. It is filed as toxicity, cell-based.
For the compound `NNC(=O)C1CCc2nc3ccccc3c(N)c2C1` (configuration not stated), the Activity result was “Non-Toxic”.

Another data set relates to HEK293. Kind of data set: Cytotoxicity against HEK293 cells at 0.1 to 300 uM after 24 hrs by MTT assay. Format: cell-based. To be noted: human, hek293, 24 h.
Turning to `NNC(=O)C1CCc2nc3ccccc3c(N)c2C1` (configuration not stated), the Activity result is listed as “Non-Toxic”.

System in the next data set: not listed separately
Put plainly: Hepatotoxicity against human HepG2 cells assessed as reduction in cell viability at 50 uM after 24 hrs by MTT assay. Format: toxicity, cell-based. Conditions: hepg2, 24 h.
With `CNC(=O)C1CCc2nc3cc(Br)ccc3c(N)c2C1` (configuration not stated), the Activity result is listed as “Toxic”.

With `Nc1c2c(nc3cc(Br)ccc13)CCC(C(=O)NCCCc1ccccc1)C2` (configuration not stated), the Activity result is “Toxic”.

In the case of `Nc1c2c(nc3cc(Br)ccc13)CCC(C(=O)NCCc1ccccc1)C2` (configuration not stated), the Activity entry is “Toxic”.

On to `Nc1c2c(nc3ccccc13)CCC(C(=O)NCCCc1ccccc1)C2` (configuration not stated), for which the Activity result was “Toxic”.

As to `Nc1c2c(nc3ccccc13)CCC(C(=O)NCCc1ccccc1)C2` (configuration not stated), the Activity result is recorded as “Toxic”.

The target of a further data set is Cholinesterase (Equus caballus, UniProt P81908).
Chain of Cholinesterase (P81908 whole entry): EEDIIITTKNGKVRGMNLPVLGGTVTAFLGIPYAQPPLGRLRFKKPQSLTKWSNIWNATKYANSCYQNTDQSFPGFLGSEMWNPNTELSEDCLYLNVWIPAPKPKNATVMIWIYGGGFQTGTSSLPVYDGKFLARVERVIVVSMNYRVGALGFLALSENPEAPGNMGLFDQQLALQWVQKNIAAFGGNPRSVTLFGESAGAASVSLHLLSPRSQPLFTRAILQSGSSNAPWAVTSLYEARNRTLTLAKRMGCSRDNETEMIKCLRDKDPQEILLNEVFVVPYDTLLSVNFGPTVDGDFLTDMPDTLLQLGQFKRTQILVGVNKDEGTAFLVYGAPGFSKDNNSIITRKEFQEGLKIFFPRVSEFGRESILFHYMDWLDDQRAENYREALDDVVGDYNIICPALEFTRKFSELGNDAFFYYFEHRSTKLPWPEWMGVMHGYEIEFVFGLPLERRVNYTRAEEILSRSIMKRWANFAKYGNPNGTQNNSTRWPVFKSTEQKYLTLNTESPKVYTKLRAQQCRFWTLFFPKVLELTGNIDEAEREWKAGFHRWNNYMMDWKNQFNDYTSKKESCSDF
Conditions: not given
Turning to `Cn1nccc1NC(=O)C1CCc2nc3cc(Br)ccc3c(N)c2C1` (configuration not stated), the concentration for half-maximal inhibition (IC50) – broadly, the concentration that gives 50% inhibition – was 20900 nM.

With `Cn1cc(-c2ccc3c(N)c4c(nc3c2)CCC(C(=O)NCCc2ccccc2)C4)cn1` (configuration not stated), the midpoint of inhibition, the IC50, lay at 10600 nM.

In turn, `Nc1c2c(nc3cc(Br)ccc13)CCC(C(=O)NCCCc1ccccc1)C2` (configuration not stated) gave an IC50 of 5110 nM.

The compound `Nc1c2c(nc3cc(Br)ccc13)CCC(C(=O)NCCc1ccccc1)C2` (configuration not stated) registered a 50% inhibitory concentration (IC50) of 7170 nM.

In the case of `Cn1cc(-c2ccc3c(N)c4c(nc3c2)CCC(C(=O)NCc2ccccc2)C4)cn1` (configuration not stated), the IC50 is 2260 nM.

For the compound `Nc1c2c(nc3ccccc13)CCC(C(=O)NCCCc1ccccc1)C2` (configuration not stated), the midpoint of inhibition, the IC50, lay at 3680 nM.

`Nc1c2c(nc3cc(Br)ccc13)CCC(C(=O)NCc1ccccc1)C2` (configuration not stated) yielded an IC50 of 10200 nM.

`Nc1c2c(nc3cc(-c4cncnc4)ccc13)CCC(C(=O)NCCCc1ccccc1)C2` (configuration not stated) gave an IC50 of 18000 nM.

Compound `Nc1c2c(nc3ccccc13)CCC(C(=O)NCc1ccccc1)C2` (configuration not stated) gave a concentration for half-maximal inhibition (IC50) of 10800 nM.

Regarding `Cn1cc(-c2ccc3c(N)c4c(nc3c2)CCC(C(=O)NCCCc2ccccc2)C4)cn1` (configuration not stated), half-maximal inhibition (IC50) was put at 2770 nM.

Turning to `Nc1c2c(nc3ccccc13)CCC(C(=O)NCCc1ccccc1)C2` (configuration not stated), the IC50 was found to be 4050 nM.

A further data set relates to HEK293. Put plainly: Cytotoxicity against HEK293 cells at > 50 uM after 24 hrs by MTT assay. It is filed as cell-based. To be noted: human, hek293, 24 h.
As for `Cn1cc(-c2ccc3c(N)c4c(nc3c2)CCC(C(=O)NCCc2ccccc2)C4)cn1` (configuration not stated), the Activity result was “Toxic”.

As to `Nc1c2c(nc3cc(Br)ccc13)CCC(C(=O)NCCCc1ccccc1)C2` (configuration not stated), the Activity result is “Toxic”.

Consider `Nc1c2c(nc3cc(Br)ccc13)CCC(C(=O)NCCc1ccccc1)C2` (configuration not stated), for which the Activity result is “Toxic”.

Regarding `Nc1c2c(nc3ccccc13)CCC(C(=O)NCCCc1ccccc1)C2` (configuration not stated), the Activity result is reported as “Toxic”.

Take `Nc1c2c(nc3cc(Br)ccc13)CCC(C(=O)NCc1ccccc1)C2` (configuration not stated): the Activity entry was “Toxic”.

Take `Nc1c2c(nc3cc(-c4cncnc4)ccc13)CCC(C(=O)NCCCc1ccccc1)C2` (configuration not stated): the Activity result is recorded as “Toxic”.

Take `Nc1c2c(nc3ccccc13)CCC(C(=O)NCCc1ccccc1)C2` (configuration not stated): the Activity result is reported as “Toxic”.

System in a further data set: not listed separately
Put plainly: Hepatotoxicity against human HepG2 cells assessed as reduction in cell viability at 300 uM after 24 hrs by MTT assay. Format: toxicity, cell-based. To be noted: hepg2, 24 h.
Turning to `NNC(=O)C1CCc2nc3ccccc3c(N)c2C1` (configuration not stated), the Activity result is listed as “Non-Toxic”.

In the next data set the target is Acetylcholinesterase (Electrophorus electricus, UniProt O42275). Kind of data set: Inhibition of electric eel AChE using acetylthiocholine as substrate preincubated for 20 mins followed by substrate addition measured every 2 mins for 20 mins by Ellman's method.
Chain of Acetylcholinesterase (O42275 whole entry): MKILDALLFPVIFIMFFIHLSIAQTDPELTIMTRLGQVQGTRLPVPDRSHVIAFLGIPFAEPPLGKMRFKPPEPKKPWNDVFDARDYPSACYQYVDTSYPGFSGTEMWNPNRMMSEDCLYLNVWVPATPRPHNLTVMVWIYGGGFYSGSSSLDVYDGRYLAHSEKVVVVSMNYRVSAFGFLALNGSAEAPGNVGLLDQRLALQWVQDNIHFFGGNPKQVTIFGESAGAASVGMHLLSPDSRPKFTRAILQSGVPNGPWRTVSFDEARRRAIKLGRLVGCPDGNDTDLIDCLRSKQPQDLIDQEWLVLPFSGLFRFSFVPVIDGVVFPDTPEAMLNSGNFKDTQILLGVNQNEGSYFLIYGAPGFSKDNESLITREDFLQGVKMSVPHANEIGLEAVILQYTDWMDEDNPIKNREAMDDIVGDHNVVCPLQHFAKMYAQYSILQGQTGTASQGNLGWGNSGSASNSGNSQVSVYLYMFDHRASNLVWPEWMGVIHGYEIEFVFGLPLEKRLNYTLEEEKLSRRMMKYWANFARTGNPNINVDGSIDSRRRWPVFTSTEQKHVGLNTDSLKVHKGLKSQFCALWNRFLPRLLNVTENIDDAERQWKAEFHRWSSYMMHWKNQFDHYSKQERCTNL
Conditions: not given
Compound `Cn1nccc1NC(=O)C1CCc2nc3cc(Br)ccc3c(N)c2C1` (configuration not stated) displayed an IC50 of 17.7 nM.

With `Cn1cc(-c2ccc3c(N)c4c(nc3c2)CCC(C(=O)NCCc2ccccc2)C4)cn1` (configuration not stated), the IC50 was 189 nM.

In the case of `CNC(=O)C1CCc2nc3cc(Br)ccc3c(N)c2C1` (configuration not stated), the IC50 is 28.6 nM.

On to `NNC(=O)C1CCc2nc3ccccc3c(N)c2C1` (configuration not stated), for which half-maximal inhibition (IC50) was put at 13 nM.

Compound `Nc1c2c(nc3cc(Br)ccc13)CCC(C(=O)NCCCc1ccccc1)C2` (configuration not stated) came in with an IC50 of 7.14 nM.

The compound `Nc1c2c(nc3cc(Br)ccc13)CCC(C(=O)NCCc1ccccc1)C2` (configuration not stated) yielded an IC50 of 24.1 nM.

In turn, `Cn1cc(-c2ccc3c(N)c4c(nc3c2)CCC(C(=O)NCc2ccccc2)C4)cn1` (configuration not stated) gave an IC50 of 191 nM.

For `Nc1c2c(nc3ccccc13)CCC(C(=O)NCCCc1ccccc1)C2` (configuration not stated), half-maximal inhibition (IC50) was put at 5.17 nM.

`Nc1c2c(nc3cc(Br)ccc13)CCC(C(=O)NCc1ccccc1)C2` (configuration not stated): the 50% inhibitory concentration (IC50) was found to be 33.7 nM.

Compound `Nc1c2c(nc3cc(-c4cncnc4)ccc13)CCC(C(=O)NCCCc1ccccc1)C2` (configuration not stated) displayed a concentration for half-maximal inhibition (IC50) of 40.8 nM.

`Nc1c2c(nc3ccccc13)CCC(C(=O)NCc1ccccc1)C2` (configuration not stated) had an IC50 of 37.2 nM.

In turn, `Cn1cc(-c2ccc3c(N)c4c(nc3c2)CCC(C(=O)NCCCc2ccccc2)C4)cn1` (configuration not stated) displayed a 50% inhibitory concentration (IC50) of 57.6 nM.

`Nc1c2c(nc3ccccc13)CCC(C(=O)NCCc1ccccc1)C2` (configuration not stated) came in with an IC50 of 16.8 nM.

These data come from ChEMBL document CHEMBL4190324 (Eur J Med Chem, 2017).
